{"source": "patent US11291674B2", "about": "(CALITHERA BIOSCIENCES, INC., priority 2016, dated 2022)", "key": {"[1]": {"target": "T1, Recombinant bovine endothelial NOS (Bos taurus, UniProt P29473)", "T1 construct": "Eurofins/Cerep Panlabs (contract laboratory that ran the assay)", "experiment": "NOS activity assay, endothelial NOS", "type": "biochemical", "conditions": "50 μM arginase inhibitor", "description": "(§1) Nitric oxide (NO) synthase (NOS) activity assays.\n(§2) Standard deviations are indicated in parentheses. […] N/A=not applicable."}, "[2]": {"target": "T2, Recombinant murine inducible NOS (Mus musculus, UniProt P29477)", "T2 construct": "Eurofins/Cerep Panlabs (contract laboratory that ran the assay)", "experiment": "NOS activity assay, inducible NOS", "type": "biochemical", "conditions": "50 μM arginase inhibitor", "description": "as §1, §2"}, "[3]": {"tested_on": "intracellular arginase in Human HepG2 cell line", "experiment": "Native arginase activity in intact cells, HepG2", "type": "cell-based", "conditions": "mean (SD), N=3, 10 mM L-arginine, urea in media after 24 h", "description": "Native arginase activity in intact cells.\nStandard deviations are indicated in parentheses."}, "4T1 cell line": {"tested_on": "4T1 cell line", "experiment": "Cytotoxicity assay (CellTiterGlo), 4T1", "type": "cell-based, murine", "conditions": "1 mM arginase inhibitor, 72 h", "experimental": "Cytotoxicity assays. […] Cytotoxicity was assayed by the addition of CellTiterGlo reagent according to the manufacturer's instructions (Promega, Madison, Wis.) followed by […] quantification on a Molecular Devices plate reader (Sunnyvale, Calif.)."}, "[4]": {"experiment": "Pharmacokinetic and pharmacodynamic study in LLC tumor-bearing mice", "type": "in vivo, mouse", "description": "(****P<0.0001; ***P<0.001; **P<0.01 vs. vehicle)."}, "[5]": {"experiment": "Tolerability and body weight in mice", "type": "in vivo", "description": "(§3) Murine tumor studies. Female wild-type C57BL/6 and Balb/c mice (5-6 weeks old) were purchased from Charles River Laboratories (Hollister, Calif.). Severe combined immune deficient (SCID, B6.CB17-PrkdcSCID/SzJ) and Pmel-1 TCR transgenic (B6.Cg-Thyla/Cy Tg(TcraTcrb)8Rest/J) mice (5-6 weeks old) were purchased from The Jackson Laboratory (Bar Harbor, Me.). All mice were housed and treated in accordance with Institutional Animal Care and Use Committee guidelines. For the 4T1 tumor model, 1×10^5 cells were injected orthotopically into the mammary fat pad; for all other tumor models, 1×10^6 cells were injected subcutaneously (s.c.) in the right flank. […] Control groups received vehicle (water) twice daily by gavage. Tumor volume measured by digital caliper (length×width×width/2) and body weight were recorded three times weekly. Animals were euthanized when tumors necrotized or volumes reached 2000 mm^3. Anti-PD-L1 antibody (5 mg/kg, clone 10F.9G2, BioXCell, West Lebanon, N.H.) was injected intraperitoneally (i.p.) on days 5, 7, 9, 11, 13, and 15 for the CT26 model. Gemcitabine (Selleckchem, Houston, Tex.) was dosed 50 mg/kg i.p. on days 10 and 16 for the CT26 model or 60 mg/kg i.p. on days 6 and 10 for the LLC model. For CD8^+ cell depletion, mice were injected i.p. with anti-CD8 antibody (25 mg/kg, clone 2.43, BioXCell) on days −1, 0, +5, and +10. […]"}, "LLC tumors [6]": {"tested_on": "LLC tumors", "experiment": "LLC syngeneic tumor model", "type": "in vivo, mouse", "description": "(§4) Murine tumor studies. Female wild-type C57BL/6 and Balb/c mice (5-6 weeks old) were purchased from Charles River Laboratories (Hollister, Calif.). Severe combined immune deficient (SCID, B6.CB17-PrkdcSCID/SzJ) and Pmel-1 TCR transgenic (B6.Cg-Thyla/Cy Tg(TcraTcrb)8Rest/J) mice (5-6 weeks old) were purchased from The Jackson Laboratory (Bar Harbor, Me.). All mice were housed and treated in accordance with Institutional Animal Care and Use Committee guidelines. For the 4T1 tumor model, 1×10^5 cells were injected orthotopically into the mammary fat pad; for all other tumor models, 1×10^6 cells were injected subcutaneously (s.c.) in the right flank. […] Control groups received vehicle (water) twice daily by gavage. Tumor volume measured by digital caliper (length×width×width/2) and body weight were recorded three times weekly. Animals were euthanized when tumors necrotized or volumes reached 2000 mm^3. Anti-PD-L1 antibody (5 mg/kg, clone 10F.9G2, BioXCell, West Lebanon, N.H.) was injected intraperitoneally (i.p.) on days 5, 7, 9, 11, 13, and 15 for the CT26 model. Gemcitabine (Selleckchem, Houston, Tex.) was dosed 50 mg/kg i.p. on days 10 and 16 for the CT26 model or 60 mg/kg i.p. on days 6 and 10 for the LLC model. For CD8^+ cell depletion, mice were injected i.p. with anti-CD8 antibody (25 mg/kg, clone 2.43, BioXCell) on days −1, 0, +5, and +10. For NK cell depletion, mice were injected i.p. with anti-NK1.1 antibody (25 mg/kg, clone PK136, BioXCell) in the LLC and B16 models or with anti-Asialo GM1 sera (20 μL, Wako Chemicals, Richmond, Va.) in the CT26 model, per the same schedule as anti-CD8.\n(§5) Tumor dissociation and flow cytometry. […] Excised tumors were placed in RPMI-1640 containing 5% FBS on ice, minced with a razor blade, and dissociated in RPMI-1640 supplemented with mouse tumor dissociation enzymes (Miltenyi Biotec, Bergisch Gladbach, Germany) on a GentleMACS Octo Dissociator With Heat (Miltenyi Biotec) according to the manufacturer's instructions. Dissociated tumors were strained through 70 μm nylon mesh, washed with cold PBS containing 2% FBS, blocked with anti-CD16/CD32 (Fc block antibody, eBioscience), and stained for cell surface antigens. For B16 and 4T1 tumors, washed dissociated tumor cells were incubated with Dead Cell Removal MicroBeads (Miltenyi Biotec) and applied to a magnetic column prior to staining. For intracellular staining, cells were fixed and permeabilized using buffers purchased from R&D Systems or eBioscience for cytoplasmic or nuclear antigens, respectively. All tumor flow experiments were acquired on an Attune N×T flow cytometer and analyzed with FlowJo software version 10 (Ashland, Oreg.), using fluorescence-minus-one controls for gating and single-stained OneComp eBeads (eBioscience) to set compensation matrices.\nGene expression analysis. […] RNA was extracted for gene expression analysis and transcripts were quantified by NanoString Technologies (Seattle, Wash.).\nCytokine analysis. […] Tumors were homogenized in 50 mM Tris-HCl buffer containing 2 mM EDTA, pH 7.4 and protease inhibitors. The homogenate was centrifuged and the supernatant was collected and re-frozen. Cytokines in the supernatant were quantified by Myriad Rules Based Medicine (Austin, Tex.)."}, "B16 tumors": {"tested_on": "B16 tumors", "experiment": "B16 syngeneic tumor model", "type": "in vivo", "description": "as §4\nTumor dissociation and flow cytometry. […] All tumor flow experiments were acquired on an Attune N×T flow cytometer and analyzed with FlowJo software version 10 (Ashland, Oreg.), using fluorescence-minus-one controls for gating and single-stained OneComp eBeads (eBioscience) to set compensation matrices."}, "4T1 tumors": {"tested_on": "4T1 tumors", "experiment": "4T1 orthotopic tumor model", "type": "in vivo, mouse", "description": "as §4, §5"}, "LLC tumors [7]": {"tested_on": "LLC tumors", "experiment": "LLC tumors in SCID mice", "type": "in vivo, mouse", "conditions": "100 mg/kg PO twice daily", "experimental": "Tumors from LLC studies were analyzed on study day 13 (CD8^+ cell depletion) or study day 14 (NK cell depletion). (****P<0.0001; ***P<0.001; **P<0.01).\nas §3, with “model.” for “model. For CD8^+ cell depletion, mice were injected i.p. with anti-CD8 antibody (25 mg/kg, clone 2.43, BioXCell) on days −1, 0, +5, and +10.”"}, "B16.F10 tumor": {"tested_on": "B16.F10 tumor", "experiment": "Example 1: arginase inhibitor with adoptive immunotherapy, B16.F10 tumors", "type": "in vivo, mouse", "conditions": "100 mg/kg twice a day, vs adoptive T cell therapy only; survival P value 0.0137", "experimental": "In order to test the effect of arginase inhibitors and adoptive immunotherapy on cancer progression, mice were inoculated with B16.F10 cells to generate a tumor. Approximately 1×10^6 cells were implanted in C57.Bl/6 mice. Mice were then treated with non-myeloablative chemotherapy (Cyclophosphamide 250 mg/kg and Fludarabine 50 mg/kg). Cyclophosphamide and Fludarabine were dosed via intraperitoneal injection on day 7 (FIG. 1A, orange arrow). Pme1-1 CD8 T cells (1×10^6) were intravenously transferred on day 8 (FIG. 1A, blue arrow). Recombinant human IL-2 (200,000 UI) was dosed via intraperitoneal injection twice a day on days 8, 9, 10 in mice receiving adoptive immunotherapy. […] Survival curves can be seen in FIG. 1C. P value is 0.0137, and was calculated by Mantel-Cox test. (N=9-10 per group)."}, "[8]": {"conditions": "100 mg/kg BID, study day 14, flow cytometry"}, "[9]": {"conditions": "100 mg/kg BID, study day 10, flow cytometry"}}, "note": "“Also recorded” adds a separate entry of the source.", "data": [{"smiles": "C[C@H](N)C(=O)N1C[C@H](CCCB(O)O)[C@](N)(C(=O)O)C1", "note": "[arginase inhibitor]", "values": [{"measurement": "Inhibition of endothelial NOS", "setting": "[1]", "value": "No inhibition"}, {"measurement": "Inhibition of inducible NOS", "setting": "[2]", "value": "No inhibition"}, {"measurement": "IC50", "setting": "[3]", "value": 32, "unit": "µM"}, {"measurement": "Growth inhibition of 4T1 cell line", "setting": "4T1 cell line", "value": "No growth inhibition"}, {"measurement": "L-arginine in tumor and plasma", "setting": "[4]; oral dosing, tumor-bearing mice", "value": "raised the amount of L-arginine"}, {"measurement": "Exposure of arginase inhibitor in tumor and plasma", "setting": "[4]; single dose or BID dosing for 5 days, oral, 2 h after last dose", "value": "dose-dependent exposure"}, {"measurement": "Tolerability", "setting": "[5]; 100 mg/kg twice daily for 23 days, no significant clinical observations or impact on body weight", "value": "well-tolerated"}, {"measurement": "Duration for which twice-daily oral dosing was well-tolerated", "setting": "[5]; mice", "value": "at least 40 days"}, {"measurement": "Tumor growth, single agent", "setting": "LLC tumors [6]; 100 mg/kg BID PO", "value": "significantly inhibited the growth"}, {"measurement": "Transcripts of interferon-responsive genes in tumors vs vehicle", "setting": "LLC tumors [6]; 100 mg/kg BID, Nanostring", "value": "increases"}, {"measurement": "CD8+ T cells in the tumor vs vehicle", "setting": "LLC tumors [6]; [8]", "value": "increase"}, {"measurement": "CD68+ macrophages in the tumor vs vehicle", "setting": "LLC tumors [6]; [8]", "value": "decrease"}, {"measurement": "Effect of depletion of CD8+ cells on efficacy", "setting": "LLC tumors [6]; 100 mg/kg twice daily, anti-CD8", "value": "smaller effect"}, {"measurement": "Efficacy after depletion of NK cells", "setting": "LLC tumors [6]; 100 mg/kg twice daily, anti-NK1.1", "value": "loss of efficacy"}, {"measurement": "Inflammatory cytokines in tumors vs vehicle", "setting": "LLC tumors [6]; 200 mg/kg BID, Luminex", "value": "increases"}, {"measurement": "Tumor growth inhibition, combination with gemcitabine", "setting": "LLC tumors [6]; gemcitabine 60 mg/kg i.p. days 6 and 10", "value": "significant increase in tumor growth inhibition"}, {"measurement": "Tumor growth, single agent", "setting": "B16 tumors; 100 mg/kg BID PO", "value": "significantly inhibited the growth"}, {"measurement": "Tumor-infiltrating activated CD25+ CD8+ cytotoxic T cells vs vehicle", "setting": "B16 tumors; 100 mg/kg BID, study day 9, flow cytometry", "value": "increase"}, {"measurement": "Efficacy after depletion of either CD8+ cells or NK cells", "setting": "B16 tumors; 100 mg/kg twice daily, depleting antibodies", "value": "blocked the efficacy"}, {"measurement": "Tumor growth, single agent", "setting": "4T1 tumors; 100 mg/kg BID PO", "value": "significantly inhibited the growth; also recorded: modest effect on tumor growth"}, {"measurement": "CD3+ T cells in the tumor vs vehicle", "setting": "4T1 tumors; [9]", "value": "increase"}, {"measurement": "Myeloid cells in the tumor vs vehicle", "setting": "4T1 tumors; [9]", "value": "decrease"}, {"measurement": "NK cells in the tumor vs vehicle", "setting": "4T1 tumors; [9]", "value": "increase"}, {"measurement": "Efficacy on LLC tumor growth in the SCID background", "setting": "LLC tumors [7]", "value": "abrogated"}, {"measurement": "Tumor volume over 25 days, combination with adoptive T cell therapy", "setting": "B16.F10 tumor", "value": "slower tumor progression"}]}]}
